# Assay results as given in US6916823B2, “Method of treatment of dopamine-related dysfunction” (Purdue Research Foundation, priority 2001, dated 2005).
# Where two headings read alike, the source gives them in different places.
# Key:
# [1] = target: T1, rat striatal D1 receptors (Rattus norvegicus, UniProt P18901); assay: binding affinity to D1 receptors, competition with SCH23390
# T1 construct: increase cAMP production in rat striatum and C-6-mD1 cells; from tissue; host or cells: rat striatum (striatal membranes)
# T1 sequence (P18901 whole entry): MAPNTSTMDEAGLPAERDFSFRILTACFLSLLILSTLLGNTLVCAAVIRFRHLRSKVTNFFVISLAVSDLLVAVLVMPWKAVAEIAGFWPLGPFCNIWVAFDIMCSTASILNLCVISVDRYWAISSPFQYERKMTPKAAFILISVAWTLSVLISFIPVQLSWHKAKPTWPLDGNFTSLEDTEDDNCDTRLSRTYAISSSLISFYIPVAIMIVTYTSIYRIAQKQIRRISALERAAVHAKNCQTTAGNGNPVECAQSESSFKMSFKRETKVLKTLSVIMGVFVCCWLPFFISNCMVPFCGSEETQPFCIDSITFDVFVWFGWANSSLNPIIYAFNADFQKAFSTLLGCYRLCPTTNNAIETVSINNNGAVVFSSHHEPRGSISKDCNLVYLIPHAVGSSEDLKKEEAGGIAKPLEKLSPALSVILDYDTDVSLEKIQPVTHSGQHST
# From the text: Experiments have been conducted to determine the binding affinity of dinoxyline to D1 receptors.
# D1 receptors = target: T2, D1 receptors (Rattus norvegicus, UniProt P18901); assay: cAMP production in rat striatum; type: biochemical; details: for agonist activity (intrinsic activity): rat striatum / rat striatal membranes, relative to dopamine
# T2 construct: increase cAMP production in rat striatum and C-6-mD1 cells; from tissue; host or cells: rat striatum (striatal membranes)
# T2 sequence (P18901 whole entry): as above
# [2] = target: T3, cloned expressed primate D1A receptors (Macaca mulatta, UniProt O77680); assay: cAMP production in C-6-mD1 cells; type: cell-based; details: for agonist activity (intrinsic activity): C-6-mD1 cells / cloned expressed primate D1A receptors, relative to dopamine
# T3 construct: expressed in transfected cells; host or cells: C-6 cells (C-6-mD1)
# T3 sequence (O77680 whole entry): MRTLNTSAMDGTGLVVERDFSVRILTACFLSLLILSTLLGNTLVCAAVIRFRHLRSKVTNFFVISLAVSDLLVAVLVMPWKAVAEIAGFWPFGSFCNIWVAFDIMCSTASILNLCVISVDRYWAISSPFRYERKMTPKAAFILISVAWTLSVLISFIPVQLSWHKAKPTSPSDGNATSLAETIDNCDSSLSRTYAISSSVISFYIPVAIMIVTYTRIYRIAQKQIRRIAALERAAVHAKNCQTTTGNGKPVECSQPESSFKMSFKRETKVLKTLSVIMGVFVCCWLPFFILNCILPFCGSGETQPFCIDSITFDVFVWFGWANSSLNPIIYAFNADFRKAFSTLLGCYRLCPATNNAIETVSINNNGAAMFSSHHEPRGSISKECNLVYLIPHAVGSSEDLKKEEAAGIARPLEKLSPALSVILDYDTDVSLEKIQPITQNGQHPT
# [3] = system: D1 and D2 dopamine receptors; assay: D1:D2 selectivity; type: binding
# D2 receptors = assay: D2 agonist properties
# unilateral 6-OHDA rats [4] = details: cited from earlier work; for efficacy in Parkinson's disease models: e.g. unilateral 6-OHDA-lesion rodent model
# unilateral 6-OHDA rats [5] = assay: rat unilateral 6-OHDA rotation model of Parkinson's disease; type: in vivo; details: for increase in rotation relative to vehicle: 10 h; for rotation during continuous administration: osmotic minipump s.c.
# From the text: Summary. In the rat unilateral 6-hydroxydopamine (6-OHDA) rotation model of Parkinson's disease, 6-OHDA is infused unilaterally into the medial forebrain bundle, the substantia nigra, or the striatum. […] When challenged with direct-acting dopamine receptor agonists, unilateral 6-OHDA rats turn contralaterally (away from the side of the lesion) because of the increased sensitivity of the postsynaptic dopamine receptors on the lesioned side. The experiments described below examine tolerance induced by the full D1 agonist, dinapsoline, using the 6-OHDA model.
# Subjects. Adult male Sprague-Dawley Rats (Hilltop Laboratories, Chatsworth, Calif.), weighing between 280 and 320 grams, were used as subjects. Animals were housed individually with food and water available ad libitum, except as noted below. The light:dark schedule was 12 h:12 h, and testing was performed during the light cycle. All methods adhere to the guidelines in the Guide for the Care and Use of Experimental Animals published by the National Institutes of Health (Pub. 85-23, 1985).
# Surgery. Rats were pretreated with 25 mg/kg desipramine (s.c.) approximately 30 minutes before surgery. Rats were anesthetized by inhalation of isoflurane (1.5 to 4.0%) and placed in a stereotaxic apparatus. An infusion cannula was placed in the medial forebrain bundle at the coordinates A.P. −3.8 mm, M.L. −1.5 mm, and D.V. −3.8 mm relative to bregma according to the atlas of Paxinos and Watson (1986). Ten micrograms of 6-OHDA (6-hydroxydopamine; Sigma Chemical Co., St. Louis, Mo.) in a volume of 4 μL was infused at a rate of 0.5 μL/min in a vehicle of 0.01% ascorbate. After a 14-day recovery period, rats were prescreened for rotation in response to d-amphetamine (5 mg/kg) and to apomorphine (0.3 mg/kg) 1 week later. Animals that responded to both d-amphetamine (>800 rotations in 3 h) and apomorphine (>100 rotations in 1 h) were retained for further study.
# Testing of compounds began on day 28 postsurgery in each case. A new group of 6-OHDA-lesioned rats was used for each new study. In some studies, rats were implanted with a subcutaneous 14-day osmotic minipump (model 2 ML2, Alza, Palo Alto, Calif.) with a flow rate of 5.0 μL/h. The rats were re-anesthetized with 1.5 to 4% isoflurane, a small incision was made on the back of the neck, and the minipump was placed subcutaneously in the cavity. The incision was closed with sterile wound clips. Before implantation, minipumps were incubated in sterile saline (37° C.) to ensure outflow at the time of implantation. The minipumps were used to administer dinapsoline, or vehicle (50% dimethyl sulfoxide (DMSO), 12.5% ascorbic acid).
# Apparatus, Procedure, and Statistics. Rats were tested for rotation in automated rotation chambers (Rotoscan, Accuscan, Columbus, Ohio). The apparatus consisted of a cylindrical Plexiglas chamber 30 cm in diameter in which the animal is fitted to a harness attached to a flexible rod connected to a rotating microswitch. Animals were allowed to habituate to chambers for 30 minutes before drug treatment in each case. Data were collected for 1 to 12 h after injection, using 15 minute time bins. Treatments were compared using one-way and repeated measures of analysis of variance (ANOVA), as appropriate; post hoc analysis was performed with Dunnett's test.
# Acute Dinapsoline Administration. Beginning 1 week after the screening dose with apomorphine, subjects (n=12) were tested once per week with dinapsoline (0.02, 0.2, or 2 mg/kg) or vehicle (s.c.) using a counterbalanced design, and rotation behavior was monitored for 10 h. After the final day of testing, rats were euthanized and brains were removed for subsequent assessment of dopamine depletion. In the oral dosing experiments, a separate group of subjects (n=8) received dinapsoline (0.02, 0.2, or 2 mg/kg) or vehicle once per week using a counterbalanced design. Rats were fasted for 16 h before dosing with oral gavage, and rotation behavior was monitored for 10 h.
# [6] = in vivo; cited from earlier work
# [7] = A-77636 0.3 mg/kg s.c. alone, 3 h
smiles,measurement,setting,value
"Br.Oc1ccc2c(c1O)Oc1cccc3c1C2CNC3 (racemic) [dinoxyline, (±)-8,9-dihydroxy-1,2,3,11b-tetrahydrochromeno[4,3,2-de]isoquinoline hydrobromide]",affinity for dopamine D1 receptors labeled with [3H]SCH23390,[1]; compared with dihydrexidine,high affinity
same,nH of competition curve,[1]; competition with SCH23390,ca. 0.7
same,Ki,"[1]; rat striatal D1 receptors, read-out: K0.5 (affinity)",< 0.005 µM
same,agonist activity (intrinsic activity),D1 receptors; hydrobromide,full agonist activity
same,EC50,"D1 receptors; rat striatum, read-out: EC50 in stimulating synthesis of cAMP via D1 receptors",< 0.03 µM
same,agonist activity (intrinsic activity),[2]; hydrobromide,full agonist activity
same,EC50,"[2]; C-6-mD1 cells, read-out: EC50 in stimulating synthesis of cAMP via D1 receptors",< 0.03 µM
same,D1:D2 selectivity,[3],equally high affinity for both types of receptors
same,D2 agonist properties,D2 receptors,some D2 agonist properties
same,efficacy in Parkinson's disease models,unilateral 6-OHDA rats [4],efficacious
"CN1CCc2cc(Cl)c(O)cc2[C@@H](c2ccccc2)C1 [SCH-23390, reference compound]",duration of action,unilateral 6-OHDA rats [5]; in our assay,approximately 3 h
Oc1ccc2c(c1O)Cc1cccc3c1[C@H]2CNC3 [dinapsoline],D1:D2 selectivity,[3],five-fold
same,increase in rotation relative to vehicle,unilateral 6-OHDA rats [5]; 0.02 mg/kg s.c.,but not at 0.02 mg/kg
same,duration of rotation,unilateral 6-OHDA rats [5]; 0.2 mg/kg s.c.,about 5 h
same,increase in rotation relative to vehicle,unilateral 6-OHDA rats [5]; 0.2 mg/kg s.c.,Statistically significant increases
same,duration of rotation,unilateral 6-OHDA rats [5]; 2 mg/kg oral,7 h
same,increase in rotation versus baseline,unilateral 6-OHDA rats [5]; 2 mg/kg oral,significantly different from baseline
same,change in rotational response over time,"unilateral 6-OHDA rats [5]; 2 mg/kg s.c. once daily, 14 days",significant increase in response over time
same,behavioral tolerance,"unilateral 6-OHDA rats [5]; 2 mg/kg s.c. once or twice daily, 14 days",no evidence for behavioral tolerance
same,change in rotational response over time,"unilateral 6-OHDA rats [5]; 2 mg/kg s.c. twice daily, 14 days",significant increase in response over time
same,increase in rotation relative to vehicle,unilateral 6-OHDA rats [5]; 2.0 mg/kg s.c.,Statistically significant increases
same,rotational behavior (cumulative rotation over 10 h),"unilateral 6-OHDA rats [5]; acute 0.02, 0.2, 2 mg/kg s.c.","robust, dose-dependent rotational behavior"
same,rotation (cumulative over 10 h),"unilateral 6-OHDA rats [5]; acute oral 0.02, 0.2, 2 mg/kg, response not dose-dependent",robust rotation
same,rotation after challenge dose 0.2 mg/kg s.c. on day 14,unilateral 6-OHDA rats [5]; after 0.6 mg/kg/day by minipump,no rotation
same,rotation after challenge dose 0.2 mg/kg s.c. on day 14,unilateral 6-OHDA rats [5]; after 6 mg/kg/day by minipump,no rotation
same,difference between groups on dinapsoline-alone challenge,"unilateral 6-OHDA rats [5]; day 7, after 6 days dinapsoline with or without raclopride",no difference was observed
same,rotation during continuous administration,unilateral 6-OHDA rats [5]; highest dose (6 mg/kg/day),brief behavioral response to which complete tolerance developed by 24 h
same,rotation during continuous administration,"unilateral 6-OHDA rats [5]; lower doses (0.006, 0.06, 0.6 mg/kg/day)",no evidence of rotation
same,D2 agonist properties,D2 receptors,some D2 agonist properties
same,efficacy in Parkinson's disease models,unilateral 6-OHDA rats [4],efficacious
"Oc1cc2c(cc1O)[C@H]1c3ccccc3CN[C@@H]1CC2 (stereo in doubt) [dihydrexidine, (+)-trans-10,11-dihydroxy-5,6,6a,7,8,12b-hexahydrobenzo[a]phenanthridine]",agonist activity (intrinsic activity),D1 receptors,full agonist
same,agonist activity (intrinsic activity),[2],full agonist
same,D1:D2 selectivity,[3],ten-fold
same,D2 agonist properties,D2 receptors,some D2 agonist properties
same,efficacy in Parkinson's disease models,unilateral 6-OHDA rats [4],efficacious
"Oc1cc2c(cc1O)C(c1ccccc1)CNCC2 (single isomer, unassigned; (+)) [(+)-SKF-38393, reference compound]",agonist activity (intrinsic activity),[2],partial agonist
"NC[C@@H]1O[C@H](C23CC4CC(CC(C4)C2)C3)Cc2c1ccc(O)c2O [Compound A-77636, reference compound]",D1:D2 selectivity,[3],more strongly D1 selective than dinapsoline
same,duration of rotation,unilateral 6-OHDA rats [5]; 1 mg/kg s.c.,approximately 18 h
same,behavioral tolerance,"unilateral 6-OHDA rats [5]; 1 mg/kg s.c. once daily for 14 days, 3 h rotation",dramatic behavioral tolerance
same,rotation on second day of dosing,"unilateral 6-OHDA rats [5]; 1 mg/kg s.c. once daily, day 2 vs day 1",significantly less rotation than on the first day
same,amount of rotation on fourth day of dosing,"unilateral 6-OHDA rats [5]; 1 mg/kg s.c. once daily, day 4, complete tolerance",no greater than that seen with vehicle
same,rotation in naive animals,"unilateral 6-OHDA rats [5]; 1 mg/kg s.c., first day",robust rotation
same,tolerance on day 3 challenge,unilateral 6-OHDA rats [5]; A-77636 0.3 mg/kg s.c. alone after 2 days A-77636 with or without quinpirole,equal tolerance in both groups
same,rotational response day 1,unilateral 6-OHDA rats [5]; [7],maximal rotational response
same,tolerance by day 2,unilateral 6-OHDA rats [5]; [7],significant tolerance
same,duration of action,"unilateral 6-OHDA rats [4]; Asin and Wirtshafter, 1993",18 h
same,plasma half-life,[6],> 6 h
"CCN1CCC[C@H]1CNC(=O)c1c(O)c(Cl)cc(Cl)c1OC [raclopride, reference compound]",effect of daily coadministration on rotational response to dinapsoline,"unilateral 6-OHDA rats [5]; raclopride 2 mg/kg s.c. with dinapsoline 2 mg/kg s.c., days 1 through 6",no significant difference
same,effect of antagonist pretreatment on rotational response to dinapsoline,"unilateral 6-OHDA rats [5]; raclopride 2 mg/kg s.c., dinapsoline 0.2 mg/kg s.c., 3 h",did not reduce
same,effect of antagonist pretreatment on rotational response to dinapsoline,"unilateral 6-OHDA rats [5]; raclopride 2 mg/kg s.c., dinapsoline 2 mg/kg s.c., 3 h",did not reduce
same,effect on rotation produced by quinpirole,"unilateral 6-OHDA rats [5]; raclopride 2 mg/kg s.c., quinpirole 0.25 mg/kg s.c., data not shown",blocked completely
